Assay results as given in patent US9120760B2, “Fluoro-homoneplanocin A and nucleoside derivatives, method for the synthesis thereof, and the pharmaceutical compositions comprising the same as an active component for treatment of cancer” (EWHA UNIVERSITY—INDUSTRY COLLABORATION FOUNDATION, priority 2012, dated 2015).

Key:
Type in all cases: cell-based
A549 (lung cancer) = assay: SRB cell growth inhibition assay, A549; settings: Homo sapiens, 96 hours, read-out: concentration of the drug to inhibit the cell growth by 50%
Description: (§1) Measurement of the Growth Inhibition Ability Against Cancer Cells
(§2) Human cancer cell strains were obtained through the following paths: OVCAR-3 (ovarian cancer), MCF-7 (hormone dependent breast cancer), MDA-MB-231 (breast cancer), HeLa (cervical cancer), PC3 (prostate cancer), LNCap (prostate cancer), HepG2 (liver cancer), A549 (lung cancer), NCI-H226 (lung cancer), Caki-1 (kidney cancer), SK-MEL-28 (melanoma cancer), HT-29 (colorectal cancer), HCT116 (colorectal cancer) and PANC-1 (pancreas cancer) cells were purchased from American Type Culture Collection (ATCC) (Manassas, Va.); U251(brain tumor) cells were purchased from Riken Institutes, Marunouchi, Tokyo, Japan; MKN-45 (gastric cancer) cells were purchased from DSMZ (Germany); and UMRC2 (kidney cancer) cells were purchased from U.S. National Cancer Institute (Bethesda, Md.).
(§3) MDA-MB-231, HCT116, UMRC2, Caki-1 and PANC-1 cells were cultured in Dulbecco's modified Eagle's medium (“DMEM”, Invitrogen) including 10% FBS, 100 units/mL penicillin-streptomycin (P/S), 10 mM HEPES and 2 mM L-glutamine. All the other cell strains were cultured in RPMI1640 medium (Invitrogen, Carlsbad, Calif.) including 10% fetal bovine serum (FBS), 1 mM sodium pyruvate, 10 mM HEPES, and 100 units/mL penicillin-streptomycin (P/S). All cells were cultured at 37° C. 5% CO2 humid conditions.
(§4) The cell growth inhibition level of the novel compound synthesized using (1S,2R,5S)-5-(6-Aminopurine-9-yl)-4-fluoro-3-hydroxyethyl-cyclopent-3(4)-en-1,2-diol (compound of Formula 1 where X is NH2 and R2 is H) prepared in the above Example 3, (1S,2R,5S)-4-Fluoro-3-hydroxyethyl-5-(uracil-1-yl)-cyclopent-3(4)-en-1,2-diol (Compound 10) prepared in the above Example 4, (1S,2R,5S)-5-(Cytosine-1-yl)-4-fluoro-3-hydroxyethyl-cyclopent-3(4)-en-1,2-diol (Compound 11) prepared in the above Example 5, Fluoro-neplanocin A, and Homoneplanocin A was analyzed by SRB (sulphorhodamine B) assay according to the publicly known method in the literature.
(§5) Human cancer cell strains increased exponentially were divided into the 96-well plates at the density of 2×10^3 to 3×10^3 cells/well and processed with the compounds of the various concentrations in the present invention on the next day. 0.25% DMSO was used as a control group. Three experiments were performed for each process. The cells were fixed with 10% trichloro-acetic acid at 96 hours after processing with the compound and SRB analysis was carried out. Optical density was measured at 530 nm with Benchmark PlusMicroplate Reader (Bio-Rad Laboratories, Hercules, Calif.). The concentration of the drug to inhibit the cell growth by 50% […] was measured with Kaledia Graph (Synergy software, Reading, Pa.).

K562 (blood cancer) = assay: SRB cell growth inhibition assay, K562; settings: Homo sapiens, 96 hours, read-out: concentration of the drug to inhibit the cell growth by 50%
Description: [Worded in the source for another cell line; this cell line is reported under the same test.] as §1, §2, §3, §4, §5

[1] = test system: HCT-116 (colorectal cancer); assay: SRB cell growth inhibition assay, HCT-116; settings: Homo sapiens, 96 hours, read-out: concentration of the drug to inhibit the cell growth by 50%
Description: as §1, §2, §3, §4, §5

PC-3 (prostate cancer) = assay: SRB cell growth inhibition assay, PC-3; settings: Homo sapiens, 96 hours, read-out: concentration of the drug to inhibit the cell growth by 50%
Description: as §1, §2, §3, §4, §5

T47D (breast cancer) = assay: SRB cell growth inhibition assay, T47D; settings: Homo sapiens, 96 hours, read-out: concentration of the drug to inhibit the cell growth by 50%
Description: [Worded in the source for another cell line; this cell line is reported under the same test.] as §1, §2, §3, §4, §5

SNU638 (gastric cancer) = assay: SRB cell growth inhibition assay, SNU638; settings: Homo sapiens, SNU-638, 96 hours, read-out: concentration of the drug to inhibit the cell growth by 50%
Description: [Worded in the source for another cell line; this cell line is reported under the same test.] as §1, §2, §3, §4, §5

Compound | IC50 (A549 (lung cancer)) | IC50 (K562 (blood cancer)) | IC50 [1] | IC50 (PC-3 (prostate cancer)) | IC50 (T47D (breast cancer)) | IC50 (SNU638 (gastric cancer))
O=c1ccn([C@@H]2C(F)=C(CCO)[C@@H](O)[C@H]2O)c(=O)[nH]1 [Compound 10, (1S,2R,5S)-4-Fluoro-3-hydroxyethyl-5-(uracil-1-yl)-cyclopent-3(4)-en-1,2-diol] | > 10 µM | > 10 µM | > 10 µM | > 10 µM | > 10 µM | > 10 µM
Nc1ccn([C@@H]2C(F)=C(CCO)[C@@H](O)[C@H]2O)c(=O)n1 [Compound 11, (1S,2R,5S)-5-(Cytosine-1-yl)-4-fluoro-3-hydroxyethyl-cyclopent-3(4)-en-1,2-diol] | > 10 µM | > 10 µM | > 10 µM | > 10 µM | > 10 µM | > 10 µM

Next, values leading:

IC50 (A549 (lung cancer)) | IC50 (K562 (blood cancer)) | IC50 [1] | IC50 (PC-3 (prostate cancer)) | IC50 (T47D (breast cancer)) | IC50 (SNU638 (gastric cancer)) | Compound
0.62 µM | 0.13 µM | 1.1 µM | 2.39 µM | 2.83 µM | 0.37 µM | Nc1ncnc2c1ncn2[C@@H]1C(F)=C(CCO)[C@@H](O)[C@H]1O [Compound of Formula 1, (1S,2R,5S)-5-(6-Aminopurine-9-yl)-4-fluoro-3-hydroxyethyl-cyclopent-3(4)-en-1,2-diol]
2.6 µM | 2.2 µM | 1.4 µM | 3.1 µM | 3.6 µM | 1.3 µM | Nc1ncnc2c1ncn2C1C(F)=C(CO)C(O)C1O (stereo not drawn) [Fluoro-neplanocin A, reference compound]
> 10 µM | > 10 µM | > 10 µM | > 10 µM | > 10 µM | > 10 µM | Nc1ncnc2c1ncn2C1C=C(CCO)C(O)C1O (stereo not drawn) [Homoneplanocin A]
